Where a SMILES comes first, the peptide text is derived from it. [ ]: non-standard residue; d: D form. N(1S-Me-propyl)Gly = CC[C@H](C)NCC(=O)O; Nspe = C[C@H](NCC(=O)O)c1ccccc1; Nphe = O=C(O)CNCc1ccccc1; NPrGly = CCCNCC(=O)O; Nlys = NCCCCNCC(=O)O
Assays:
Aβ40 [1] = molecular target: T1, Aβ40 (Homo sapiens, UniProt P05067); assay: Aβ40 aggregation assay monitored via ThT fluorescence; format: biochemical; settings: 100 μM peptoid, 20 μM Aβ40 monomer; mean±SEM, n=7
T1 construct: purchased Anaspec, Inc
Method: (§1) Aβ40 was dissolved in cold 1,1,1,3,3-hexafluoro-2-propanol (HFIP) to create a 1 mM solution and was incubated on ice for 60 min. After incubation, the solution was aliquoted into individual silicon-coated vials, and HFIP was allowed to evaporate overnight at room temperature, resulting in a thin protein film that was stored with desiccant at −80° C. until use. Prior to experimentation, protein films were rehydrated with 5 mM NaOH on ice for 5 min, and then 40 mM Tris-HCl (pH 8.0) was added for 10 min on ice for a final concentration of 250 μM NaOH.
(§2) Aggregation assays were performed with 20 μM rehydrated Aβ40 in 40 mM Tris-HCl (pH 8.0) and 150 mM NaCl. Peptoids were dissolved in DMSO and added at 100 μM such that the final DMSO concentration was 5% (v/v). Assays were performed at 25° C. with agitation on an orbital shaker at 800 rpm.
To monitor aggregation using ThT, an aliquot of the aggregation reaction was taken at varying time points and combined with 12.5 μM ThT at a 5:1 molar ratio (ThT:Aβ). Samples were mixed for 8 s and then scanned with a Shimazdu RF-150 mini fluorometer (excitation at 440±10 nm and emission at 490±10 nm) using an average scan time of 4 s. ThT fluorescence with background (ThT alone) subtraction was normalized to the fluorescence detected at equilibrium within the control reaction, and results were plotted against time. […] The fold-change in the lag time was calculated as the ratio of the lag time observed in the presence of peptoid to that of the control. The equilibrium plateau was determined for both the control and peptoid reactions, and percent inhibition was calculated as the percentage decrease of the equilibrium plateau observed in the presence of peptoid relative to the control.

Aβ40 [2] = molecular target: T1, Aβ40; assay: Aβ40 aggregation assay assessed by dot blot analysis with fibril specific OC antibody; format: biochemical; settings: 100 μM peptoid, 20 μM Aβ40 monomer; for lag time extension (dot blot, OC antibody), FIG. 3 legend: mean±SEM, n=3
Method: as §1, §2
In parallel with ThT fluorescence, aggregation assays were also assessed by dot blot analysis. […] Membranes were washed three times with TBS-T and incubated with Aβ fibril specific OC antibody (1:5000 dilution) for 1 h at room temperature with gentle agitation. Membranes were again washed three times with TBS-T. Protein detection for bound OC antibody was performed by binding alkaline phosphatase-conjugated anti-rabbit IgG (1:3000 dilution) for 1 h at room temperature with gentle agitation. Dot blots were developed using nitro blue tetrazolium and 5-bromo-4-chloro-3-indolyl phosphate in TBS-T/MgCl2 until […]. The developing reaction was halted using a 10% acetic acid solution. Dot blots were immediately imaged using a Canon CanoScan 9000F (Tokyo, Japan). Images were analyzed with ImageJ software using the gel lane analysis tool. Dot density was normalized to the density detected at equilibrium for the control and plotted against time. The fold-change in lag time and percent inhibition were assessed as described for ThT fluorescence.

Aβ40 [3] = molecular target: T1, Aβ40; assay: Transmission electron microscopy of Aβ40 aggregates; settings: 100 μM peptoid, 20 μM Aβ40, 255 min; for overall number of Aβ40 aggregates (TEM): versus control
Method: Aggregation assays were performed with 20 μM rehydrated Aβ40 in 40 mM Tris-HCl (pH 8.0) and 150 mM NaCl. Peptoids were dissolved in DMSO and added at 100 μM such that the final DMSO concentration was 5% (v/v). Assays were performed at 25° C. with agitation on an orbital shaker at 800 rpm. Monomer aggregation reactions were gridded for transmission electron microscopy (TEM) at 255 min, a time by which the control reaction had reached plateau as observed by ThT fluorescence. A 3 μL sample was placed onto a wax substrate, and a 300 square mesh formvar-carbon supported nickel grid (Electron Microscopy Sciences, Hatfield, Pa.) was inverted onto the sample. After 1 min, the sample was wicked away from the bottom side of the grid using a piece of filter paper. A 3 μL sample of 2% uranyl acetate was then placed onto the wax substrate, and the grid was inverted onto the solution for a period of 45 s. Excess stain was wicked away with a piece of filter paper, and the grids were allowed to dry for a period of 24 h. Imaging was performed using a JEOL-1011 transmission electron microscope (JEOL Ltd., Tokyo, Japan) with an accelerating voltage of 110 kV. Blinded observation of samples with random selection of grid areas was implemented to reduce bias during imaging. Images are the representative of 3 repeated experiments and 3 random sections of the grids.

Aβ40 [4] = molecular target: T1, Aβ40; assay: Nile Red spectroscopy, surface hydrophobicity of Aβ40 aggregates; settings: 100 μM peptoid, 20 μM Aβ40, equilibrium plateau; n=3-4
Method: as §2
To monitor peptoid-induced changes in aggregate surface hydrophobicity, which are indicative of changes in aggregate conformation, an aliquot of the aggregation reaction was taken from the equilibrium plateau and combined with 200 μM Nile Red (Life Technologies, Carlsbad, Calif.) at a 10:1 molar ratio (Nile Red:Aβ). Samples were scanned using a PerkinElmer LS 45 Luminescence Spectrometer (excitation at 550 nm and emission from 580-700 nm), and the integrated area under the curve (IAUC) was calculated from 580-700 nm. The IAUC was blank (Nile Red, peptoid) subtracted and normalized to Nile Red measurements performed for the control reaction.

Aβ40 [5] = molecular target: T1, Aβ40; settings: cited from earlier work
Aβ40 [6] = molecular target: T1, Aβ40; settings: different Aβ lot; cited from earlier work

T1 sequence (P05067 672-711 limits assumed): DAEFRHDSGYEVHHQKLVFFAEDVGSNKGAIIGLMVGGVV

## CCCN(CC(=O)N(CCC)CC(=O)N(CC(=O)N(CC(=O)N(CCC)CC(=O)N(CC(=O)N(CC(N)=O)Cc1ccccc1)Cc1ccccc1)Cc1ccccc1)Cc1ccccc1)C(=O)CNCCCCN [JPT1a] (H-[Nlys][NPrGly][NPrGly][Nphe][Nphe][NPrGly][Nphe][Nphe]-NH2)
Aβ40 [1]
  Inhibition of Aβ40 aggregation (reduction in the ThT fluorescence plateau at equilibrium): 85.6±4.8%
Aβ40 [2]
  decrease in fibrillar aggregates at equilibrium (dot blot, OC antibody): 72.6±4.5%
  fold change in lag time versus the control (dot blot, OC antibody): < 0.50 fold
  lag time extension (dot blot, OC antibody), FIG. 3 legend: < 0.42 times that of the control
Aβ40 [3]
  morphology of Aβ40 aggregates formed in the presence of peptoid (TEM): circular, bird nest-like morphology
  overall number of Aβ40 aggregates (TEM): reduction in the overall number of aggregates
Aβ40 [4]
  surface hydrophobicity of Aβ40 aggregates (Nile Red fluorescence IAUC 580-700 nm normalized to control): significantly increased surface hydrophobicity

## CC[C@H](C)N(CC(=O)N(CC(=O)N(CC(=O)N(CC(=O)N(CC(=O)N(CC(=O)N(CC(N)=O)[C@@H](C)c1ccccc1)[C@@H](C)c1ccccc1)[C@@H](C)CC)[C@@H](C)c1ccccc1)[C@@H](C)c1ccccc1)[C@@H](C)CC)C(=O)CNCCCCN [JPT1] (H-[Nlys][N(1S-Me-propyl)Gly][N(1S-Me-propyl)Gly][Nspe][Nspe][N(1S-Me-propyl)Gly][Nspe][Nspe]-NH2)
Aβ40 [1]
  Inhibition of Aβ40 aggregation (reduction in the ThT fluorescence plateau at equilibrium): 83.1±4.8%
Aβ40 [2]
  decrease in fibrillar aggregates at equilibrium (dot blot, OC antibody): 46.0±11.4%
  fold change in lag time versus the control (dot blot, OC antibody): 2.7±0.8 fold
  lag time extension (dot blot, OC antibody), FIG. 3 legend: 2.67±0.83 times that of the control
Aβ40 [3]
  morphology of Aβ40 aggregates formed in the presence of peptoid (TEM): small aggregates with no extensive branching
  overall number of Aβ40 aggregates (TEM): reduction in the overall number of aggregates
Aβ40 [4]
  surface hydrophobicity of Aβ40 aggregates (Nile Red fluorescence IAUC 580-700 nm normalized to control): no significant change in Nile Red fluorescence
Aβ40 [5]
  Inhibition of Aβ40 aggregation (ThT), previously reported value: 81.2±4.4%
Aβ40 [6]
  decrease in fibrillar aggregates (dot blot), previously published data: 63.7±9.2%
  fold change in lag time compared to the control (dot blot), previously published data: < 0.31 fold

## CC[C@H](C)NCC(=O)N(CC(=O)N(CC(=O)N(CC(=O)N(CC(=O)N(CCCCN)CC(=O)N(CC(=O)N(CC(N)=O)[C@@H](C)c1ccccc1)[C@@H](C)CC)[C@@H](C)CC)[C@@H](C)c1ccccc1)[C@@H](C)c1ccccc1)[C@@H](C)c1ccccc1 [JPT1s] (H-[N(1S-Me-propyl)Gly][Nspe][Nspe][Nspe][N(1S-Me-propyl)Gly][Nlys][N(1S-Me-propyl)Gly][Nspe]-NH2)
Aβ40 [1]
  Inhibition of Aβ40 aggregation (reduction in the ThT fluorescence plateau at equilibrium): 76.9±4.8%
Aβ40 [2]
  decrease in fibrillar aggregates at equilibrium (dot blot, OC antibody): 50.5±9.0%
  fold change in lag time versus the control (dot blot, OC antibody): 2.2±0.4 fold
  lag time extension (dot blot, OC antibody), FIG. 3 legend: 2.22±0.28 times that of the control
Aβ40 [3]
  overall number of Aβ40 aggregates (TEM): reduction in the overall number of aggregates
Aβ40 [4]
  surface hydrophobicity of Aβ40 aggregates (Nile Red fluorescence IAUC 580-700 nm normalized to control): no significant change in Nile Red fluorescence
